Patent publication US20240124520A1, “N-ACYLATED HISTIDINE DIPEPTIDES AS ANTICANCER AGENTS” (THE BOARD OF TRUSTEES OF THE LELAND STANFORD JUNIOR …, priority 2019, published 2024)
Non-standard residues stand in square brackets, D forms with d. Residues, ends and D or L forms follow the SMILES beside them. *: point of attachment. Palmitoyl = CCCCCCCCCCCCCCCC(=O)*

Columns and labels:
[1] = tested on: MCF7, estrogen receptor positive, human breast cancer cells; assay: Cell Titer Blue in vitro cell viability assay, MCF7; type: cell-based; settings: 72 h, MCF7 (DMEM), 3 days at 37° C.
Procedure: (§1) FIG. 8: Dose Response curve for MBC0179 with MCF7 cells. Compound MBC0179 was incubated with MCF7, estrogen receptor positive, human breast cancer cells at the indicated concentrations for 3 days at 37° C. prior to Cell Titer Blue fluorescence-based cell viability assay. Normalized cell viability data, expressed as a percentage, are averaged from three biological replicates and standard error represented by error bars for each averaged data point (empty squares). The compound concentrations are represented on log scale on the x-axis in μM units. Data were analyzed using free software called DrFit, as described in Nature Scientific Reports, Article number: 14701, (2015). […]
(§2) The Cell Titer Blue reagent (available from Promega, Inc.) is a buffered solution containing resazurin, a compound that is converted to resorufin, a detectable fluorescent product, by metabolically active cells. The fluorescence intensity of resorufin product therefore serves as a proportional measure of the number of viable cells, permitting changes in cell viability within cancer or other cell lines to be monitored in response to the addition of cytotoxic or cytostatic agents. […] Metastases to the lungs may be conveniently quantified by a well-established clonogenic assay. […]

[2] = tested on: A549 human lung cancer cells; assay: Cell Titer Blue in vitro cell viability assay, A549; type: cell-based; settings: 72 h, A549 (DMEM), 3 days at 37° C.
Procedure: as §1, with “13:” for “8:”, “A549” for “MCF7”, “A549” for “MCF7, estrogen receptor positive,”, “lung” for “breast”
as §2

[3] = tested on: 4T1 murine breast cancer cell line-derived mammary tumors, metastasis to the lungs; assay: 4T1 mouse breast cancer lung metastasis study (clonogenic assay); type: in vivo; settings: Balb/c mice
Procedure: FIG. 17: 4T1 Mouse Breast Cancer Lung Metastasis Study with MBC0179. Compound MBC0179 (in 7% w/v Cremophore EL/10% v/v ethanol/[…] vehicle) or vehicle only was administered intravenously to three groups of six Balb/c mice (8 week old) carrying 4T1 murine breast cancer cell line-derived mammary tumors, one week post-implantation. After twice weekly dosing for four weeks with vehicle (blue bar), 10 mg/kg (red bar) or 15 mg/kg (green bar) MBC0179, the mice were humanely euthanized according to IACUC guidelines and lungs excised for 4T1 colonogenic assay in order to provide a measure of 4T1 metastasis to the lungs. The colony counts were plotted, averaged and standard error calculated (error bars). […] Additonally, the percentage reduction in lung-derived 4T1 colonies between the vehicle and 15 mg/kg MBC0179 treatment group was calculated based on the average colony counts for each group, normalizing to the vehicle group, indicated on chart.
The Cell Titer Blue reagent (available from Promega, Inc.) is a buffered solution containing resazurin, a compound that is converted to resorufin, a detectable fluorescent product, by metabolically active cells. […] Metastases to the lungs may be conveniently quantified by a well-established clonogenic assay. […]

[4] = tested on: HEPG2 human liver carcinoma cells; assay: Cell Titer Blue in vitro cell viability assay, HEPG2; type: cell-based; settings: 72 h, HEPG2 (DMEM), 3 days at 37° C.
Procedure: as §1, with “12:” for “8:”, “HEPG2” for “MCF7”, “HEPG2” for “MCF7, estrogen receptor positive,”, “liver carcinoma” for “breast cancer”
as §2

With CCCCCCCCCCCCCCCC(=O)N[C@H](Cc1c[nH]cn1)C(=O)N[C@@H](C(=O)OCC)C(C)C [Compound 5, N-[N-(1-oxohexadecyl)-D-histidyl]-D-valine ethyl ester] (Palmitoyl-[dH]-[dV]-OEt) the IC50 [1] was 355 µM, the IC50 [2] was 10.5 µM and the “lung metastases (average 4T1 colony counts)” value ([3]; 10 mg/kg and 15 mg/kg intravenous twice weekly vs vehicle) was “dose-dependent reduction in lung metastases”. The “percent reduction in lung metastases” value ([3]; 15 mg/kg intravenous twice weekly for four weeks vs vehicle, lung-derived 4T1 colonies, p=0.03, two-tailed t-test) was 74.4% and the IC50 [4] was 24.9 µM.
